Assay results taken from US20160009752A1, “[…]-OXIMINO-AMINOALKYLETHERS AND PROCESS FOR PREPARATION THEREOF, USEFUL AS ANTIDIABETIC AND […] AGENTS” (COUNCIL OF SCIENTIFIC & INDUSTRIAL RESEARCH, priority 2013, published 2016).

Test system: sucrose loaded rat
Assay: Sucrose loaded rat model (SLM), oral tolerance test
Type: in vivo
Parameters: % Antihyperglycemic activity SLM: concentration or dose not given beside the values
Excerpt: On the day of experiment blood glucose of all the overnight fasted animals was checked by Glucostrips (Roche) using Glucometer (ACCU-CHEK II; Roche Diagnostics, USA). […] Animals were divided into groups consisting of five animals in each. […] The test compounds and standard drug was always prepared in the vehicle 1% gum acacia. […] Food (not water) was removed from the cages during the experimental period. […] Comparing the AUC of test sample or drug treated groups compared to control group determined the percent improvement in OGTT by test sample and standard drugs and termed as antihyperglycaemic activity. Statistical analysis between the groups was done by employing Students t test

`C/C(=N\OCCN1CCCCC1)[C@H]1CC[C@H]2[C@@H]3CC=C4C[C@@H](O)CC[C@]4(C)[C@H]3CC[C@]12C` [Compound 14b, 3β-Hydroxy-pregna-5-en-20-one-O-(2-piperidin-1-yl-ethyl)-oxime] was tested, and the “Blood glucose profile, 0 min post glucose load” value (100 mg/kg) was 94.2 ± 2.6 mg/dL, the “Blood glucose profile, 30 min post glucose load” value (100 mg/kg) was 120.8 ± 2.1 mg/dL and the “Blood glucose profile, 60 min post glucose load” value (100 mg/kg) was 101.4 ± 2.9 mg/dL. The “Blood glucose profile, 90 min post glucose load” value (100 mg/kg) was 89.4 ± 3.3 mg/dL, the “Blood glucose profile, 120 min post glucose load” value (100 mg/kg) was 69.4 ± 2.3 mg/dL and the “% Antihyperglycemic activity SLM” value (Table 2, sucrose loaded rat) was 24.4%. For the same molecule, the “anti-diabetic activity, in words” value (all the models including db/+ mice models) was “better anti-diabetic activity”.
